Earlier results as cited in patent US10899754B2, “Modulators of indoleamine 2,3-dioxygenase” (GLAXOSMITHKLINE INTELLECTUAL PROPERTY DEVELOPMENT LIMITED, priority 2016, dated 2021).

Experiments:
[1] = system: naive CD4+CD25- T cells; details: co-culture with DCs; cited from earlier work
[2] = system: PAN02 pancreatic cells; details: orally dosed, cited from earlier work

NS(=O)(=O)NCCNc1nonc1C(=NO)Nc1ccc(F)c(Br)c1 [INCB204360, epacadostat]
Conversion of naive CD4+CD25- T cells into CD4+FoxP3+ Tregs [1]: blocked the conversion | Inhibition of tumor growth ([2]; PAN02 pancreatic cells, immunocompetent mice): significant dose-dependent inhibition of tumor growth | Effect against tumor ([2]; same tumor (PAN02) implanted in immune-deficient mice): without effect
